BindingDB's records for doi:10.1021/jm990947f (University of Nottingham, 2000)

Key:
[1] = Inhibition of IGF-II stimulated MCF-7 human breast tumor cell proliferation
[2] = Inhibition of IGF-I stimulated MCF-7 human breast tumor cell proliferation

IC50 [1]: 3.2 µM | IC50 [2]: 2.9 µM
Compound: COc1cc(/C=C(\C#N)c2ccccn2)ccc1O
